{"source": "patent US10857167B2", "about": "“Use of oligosaccharide compositions to enhance weight gain” (Children's Hospital Medical Center, priority 2015, dated 2020)", "key": {"[1]": {"test_system": "small bowel luminal microbiome", "experiment": "16S sequencing of small bowel luminal contents after ICR", "type": "in vivo, mouse", "from_the_text": "Luminal small bowel contents were expressed into AllProtect Tissue Reagent (Qiagen Inc, CA). Bacterial DNA was extracted using the AllPrep DNA/RNA Mini Kit (Qiagen Inc, CA), according to kit instructions and prior to sequencing (described below). Small bowel tissue samples for RNA were placed into RNA Later (Life Technologies, NY). RNA extraction was accomplished following Qiagen RNeasy Plus Kit instruction (Qiagen Inc, CA). All nucleic acid samples were then stored at −80 Celsius until sequenced (described below).\nFollowing bacterial community DNA extraction from harvested small bowel contents obtained from operated mice taken to 8 weeks, samples were quantified using the Qubit ssDNA kit (Life Technologies, NY). The V3 and V4 regions of the 16S gene were then amplified and tagged with region-specific primers (Illumina flowcell compatible sequences), permitting sequencing of up to 576 individual bacterial communities on the same flowcell. Fadrosh et al. (2014) Microbiome 2:6. Two positive and 2 negative controls were included in each run. FastStart Taq kit (Roche Applied Science, Indianapolis, Ind.) was used for thermocycling then equal volumes of each amplicon were pooled and cleaned using the QIAquick PCR cleanup column (Qiagen, MD). The size of library pools was then verified using the Fragment Analyzer CE (AATI, Ames Iowa) and quantified using the Qubit high sensitivity dsDNA kit. Dilution to 1 nM and addition of PhiX V3 library (Illumina, Calif.) was followed by denaturation and further dilution to 12 pM in Illumina's HT1 buffer. The pool was then loaded to the Illumina MiSeq V2 500 cycle kit cassette, a sample sheet prepared, and the MiSeq run was initiated for FASTQ generation.\nThe 16S rRNA amplicon sequences were assembled and processed using an integrated, high-throughput analysis pipeline established at Cincinnati Children's Hospital Medical Center. Paired-end reads were assembled and quality filtered using Pandaseq v2.8. Masella et al. (2012) BMC bioinformatics 13: 31. Reads with ambiguous base calls, minimum overlap of 10 nt, or <425 nt were culled. Demultiplexing and removal of barcodes and primers was performed using the FastX-toolkit. Pearson et al. (1997) Genomics 46: 24-36. De novo clustering at 97% sequence similarity and chimera filtering was performed using UPARSE v7. Edgar (2013) Nature methods 10: 996-998. UCLUST, as implemented in QIIME v1.8, was used for taxonomic classification to the Greengenes v13.8 database. Caporaso et al. (2010) Nature methods 7: 335-336; Edgar (2010) Bioinformatics 26: 2460-2461; and McDonald et al. (2012) The ISME journal 6: 610-618. PyNast and FastTree were used to align sequence reads and construct a phylogenetic tree. Caporaso et al. (2010) Bioinformatics 26: 266-267; and Price et al. (2010) PloS one 5: e9490; Price M N et al. (2009) Molecular biology and evolution 26: 1641-1650. Additional integrated analyses included QIIME scripts for the generation of alpha and beta diversity metrics, corresponding visualizations, and summaries and plots of taxonomic composition. Alpha and beta diversity metrics were computed after subsampling to the lowest observed read depth (n=7,793 reads).\nIn order to estimate the treatment effect on alpha diversity metrics adjusted for housing cohort, a generalized ANCOVA model was used. The Chaol, Shannon, Simpson and Faith's Phylogenetic Diversity indices were examined. Differences between groups in community composition post-treatment, as measured by the weighted and unweighted UniFrac metrics (Lozupone and Knight (2005) Applied and environmental microbiology 71: 8228-8235) were tested by permutational ANOVA as implemented by the ADONIS function in the R package vegan. Oksanen et al. (2015) Vegan: Community Ecology Package. 2015; and Team (2015) R: A language and environment for statistical computing R Foundation for Statistical Computing [http://www.R-project.org/. 2015]. […]"}, "[2]": {"test_system": "small bowel of mice after ileocecal resection (ICR)", "experiment": "Histologic markers of adaptation (villus height, crypt depth, bowel circumference, intestinal length) after ICR", "type": "in vivo, mouse", "conditions": "for crypt depth, median / intestinal length (corrected), median / small bowel circumference, median / villus height, median: 2′-FL supplemented ICR subgroup, interquartile range in brackets", "protocol": "At the time of resection, tissue was obtained to prepare for histologic examination (FIG. 12). No differences in measurements of villus height, crypt depth, and bowel circumference were found at the time of resection. […] Crypts of both post-operative control and 2′ FL supplemented groups were deeper than those of pre-operative tissue. […] Only weights were obtained from non-operated control animals. Resected intestine from operated animals was measured for length then the site of small bowel transection was processed for small bowel contents, histology, and RNA. At the time of experimental completion, small bowel immediately proximal to the site of anastomosis was also harvested for small bowel contents, histology, and RNA from the operated group. Small bowel tissue samples for histology were cut in the longitudinal and transverse section, fixed with 4% paraformaldehyde, mounted in paraffin, and stained with hemotoxylin and eosin. Villous height, crypt depth, and bowel circumference were measured in a blinded manor. At least 10 well-oriented villus and crypt domains were assessed for each sample and two samples were averaged per mouse. The serosal circumference was measured twice per sample with two samples per mouse. The average value per mouse was determined. Measurements were performed using the Nikon Ti-Eclipse with NIS Element Advanced Research version 4.20 (Nikon Inc, NY). […] Intestinal length was compared across groups using the Wilcoxon rank-sum test as values were not normally distributed. Histologic count data was averaged per mouse across two samples and compared by the Wilcoxon rank-sum test. Weight data was analyzed using Stata version 13.0 (StataCorp LP, TX). Remaining morphometric and histologic data were analyzed using GraphPad Prism version 5 (GraphPad Software Inc, CA)."}, "[3]": {"conditions": "luminal contents, postop vs preop"}}, "note": "Entries after “also recorded” stand apart in the source; their conditions may differ."}
{"smiles": "C[C@@H]1O[C@@H](O[C@H]2[C@H](O[C@H]3[C@H](O)[C@@H](O)C(O)O[C@@H]3CO)O[C@H](CO)[C@H](O)[C@@H]2O)[C@@H](O)[C@H](O)[C@@H]1O", "note": "(stereo partly drawn) [2′-FL, 2′-fucosyllactose]", "values": [{"measurement": "relative abundance of Enterobacteriaceae after resection compared to control", "setting": "[1]; [3]", "value": "greater decline"}, {"measurement": "relative abundance of Lachnospiraceae after resection compared to control", "setting": "[1]; [3]", "value": "relatively larger bloom"}, {"measurement": "weighted or unweighted UniFrac metrics compared to control", "setting": "[1]; post-treatment, 8 weeks after ICR", "value": "Nor were differences in the weighted or unweighted UniFrac metrics detected"}, {"measurement": "other alpha-diversity metrics examined (Chao1, Simpson, Faith's Phylogenetic Diversity) compared to control", "setting": "[1]; small bowel luminal contents 8 weeks after ICR", "value": "No differences were detected"}, {"measurement": "microbial alpha diversity by Shannon diversity index compared to control", "setting": "[1]; small bowel luminal contents 56 days after ICR", "value": "significant increase; also recorded: increased; also recorded: greater alpha diversity"}, {"measurement": "enrichment of sequence reads of genus Parabacteroides (OTU_146) compared to controls", "setting": "[1]; small bowel luminal contents 56 days after ICR, adjusted for housing cohort", "value": 4.1, "unit": "log 2-fold"}, {"measurement": "increase in microbes of the genus Parabacteroides compared to controls", "setting": "[1]; supplemented, resected animals", "value": "> 4", "unit": "fold"}, {"measurement": "crypt depth, median", "setting": "[2]; postoperative day 21", "value": 89, "unit": "μm"}, {"measurement": "intestinal length (corrected), median", "setting": "[2]; postoperative day 21", "value": 35.5, "unit": "cm"}, {"measurement": "small bowel circumference, median", "setting": "[2]; postoperative day 21", "value": "7,133 μm"}, {"measurement": "villus height, median", "setting": "[2]; postoperative day 21", "value": 346, "unit": "μm"}, {"measurement": "crypt depth, median", "setting": "[2]; postoperative day 56", "value": 106, "unit": "μm"}, {"measurement": "intestinal length (corrected), median", "setting": "[2]; postoperative day 56", "value": 38.5, "unit": "cm"}, {"measurement": "small bowel circumference, median", "setting": "[2]; postoperative day 56", "value": "9,671 μm"}, {"measurement": "villus height, median", "setting": "[2]; postoperative day 56", "value": 405, "unit": "μm"}, {"measurement": "histologic markers of adaptation (crypt depth, villus height, bowel circumference) compared to control", "setting": "[2]; point of weight divergence, 21 days post-ICR", "value": "did not alter"}, {"measurement": "crypt depth compared to control ICR", "setting": "[2]; postoperative day 21", "value": "no difference"}, {"measurement": "villus height compared to control ICR", "setting": "[2]; postoperative day 21", "value": "no difference"}, {"measurement": "intestinal length compared to control ICR", "setting": "[2]; postoperative day 21 and day 56", "value": "no difference"}, {"measurement": "villus height compared to control ICR", "setting": "[2]; postoperative day 56", "value": "appeared longer; also recorded: trended toward a greater height"}, {"measurement": "crypt depth compared to control ICR", "setting": "[2]; postoperative day 56 (8 weeks)", "value": "increased; also recorded: significantly deeper"}, {"measurement": "crypt depth compared to control ICR", "setting": "[2]; postoperative day 56 (8 weeks), listed as 2′ Fl", "value": "significantly greater"}, {"measurement": "crypt depth compared to control ICR", "setting": "[2]; postoperative day 56 (8 weeks), listed as 2′FL", "value": "significantly greater"}, {"measurement": "bowel circumference compared to control ICR", "setting": "[2]; postoperative day 56 (Example 2)", "value": "no significant difference"}, {"measurement": "villus height compared to control ICR", "setting": "[2]; postoperative day 56, listed as 2′-Fl", "value": "appeared longer"}, {"measurement": "duration of the acute histologic response to ICR compared to control", "setting": "[2]; postoperative day 56 plotted alongside day 21", "value": "sustains the acute histologic response over a longer time period; also recorded: sustained the acute increases"}, {"measurement": "small bowel circumference compared to control ICR", "setting": "[2]; postoperative days 21 or 56", "value": "no statistical difference"}]}
